Patent US20250057979A1, “CARDIAC CALCIUM HANDLING MACHINERY REMODELED IN FRIEDREICH'S ATAXIA” (University of South Florida, priority 2023, published 2025)

Experiments:
[1] = test system: ventricular myocytes from FXN-KO and FXN-WT mice; assay: Oxygen consumption rate (OCR), XFp24 Cell Mito Stress Test (Agilent Seahorse); type: cell-based, mouse; conditions: isolated ventricular myocytes
Description: To investigate how mitochondrial respiration was affected in FA, OCR was measured herein using XFp24 Cell Mito Stress Test (Catalog #B05423; Agilent Seahorse). One day prior to the experiment, XFp24 cell culture plates were coated with gelatin/fibronectin at 37° C. Ventricular myocytes were enzymatically isolated from FXN-KO and FXN-WT mice. We dissociated myocytes in DMEM medium (Seahorse Bioscience), supplemented with 1 mM pyruvate, 2 mM glutamine, and 10 mM D-glucose. We plated 2500 myocytes/well into 24 well seahorse plates for 10 min. OCR were measured using the Seahorse Bioscience XF24 Extracellular Flux Analyzer (Seahorse Bioscience). Measurements were taken as the cells were incubated sequentially under four conditions: 1) basal levels were measured with no additives; 2) oligomycin (1.5 μM) was added to inhibit ATP synthase and OXPHOS, showing glycolysis alone reversibly; 3) FCCP (1 μM), a mitochondrial uncoupler, was added to induce maximal respiration; and 4) Antimycin A (10 μM), a Complex III inhibitor, was added to obtain non-mitochondrial oxygen consumption background. The Seahorse software was used to extract the results and plotted them using GraphPad Prism. OCR was normalized to cell number per well.

[2] = test system: left ventricular myocytes from FXN-WT and FXN-KO; conditions: 10 μM FCCP added after 15 min of time-dependent recording over 22 min; FXN-WT and FXN-KO cardiomyocytes
Description: The mitochondrial membrane potential (ΔΨm) was measured using tetramethyl rhodamine methyl ester (TMRM) dye. Left ventricular myocytes from the FXN-WT and FXN-KO were plated in an eight-well confocal chamber (LAB-TEK, DK, Denmark; Catalog #155409,) for 20 minutes, and cells were incubated with TMRM (10 nmol/L; Invitrogen; Catalog #T668) for 20 minutes in Tyrode solution at 37° C. and washed two times with Tyrode solution. After incubation with the dye, live cells were imaged for 20 min in 2 min intervals on a confocal microscope (Olympus-IX) using a 63X-oil objective. […] Confocal settings were identical for FXN-WT and the FXN-KO myocytes.

CC[C@H]1/C=C/C=C/C[C@@H](C)[C@H](O)[C@@](C)(O)C(=O)[C@@H](C)[C@H](O)[C@@H](C)C(=O)[C@@H](C)[C@H](O)[C@@H](C)/C=C/C(=O)O[C@@H]2[C@H](C)[C@H](CC1)O[C@]1(CC[C@H](C)[C@H](C[C@@H](C)O)O1)[C@H]2C [Oligomycin, oligomycin]
OCR after injection of oligomycin ([1]; oligomycin 1.5 μM): decreased

N#CC(C#N)=NNc1ccc(OC(F)(F)F)cc1 [FCCP, carbonyl cyanide 4-(trifluoromethoxy) phenylhydrazone]
OCR after injection of FCCP ([1]; FCCP 1 μM): increased OCR to maximal levels
ΔΨm (TMRM fluorescence) after addition of FCCP [2]: decreased

Antimycin A
OCR after injection of antimycin A ([1]; Antimycin A 10 μM): reduced
